This experiment deals with S. aureus 8588. The experiment in a line: Effectiveness against S. aureus 8588 (absorbance, Mueller-Hinton broth). Conditions: 0.01 mg/ml ampicillin (below MIC). It is filed as cell-based. The source says:
The absorbance readings of treatments above the MIC were similar to the negative control of Mueller-Hinton broth alone indicating no bacterial growth.
The absorbance readings of the phage K treated wells were similar to the negative control Mueller-Hinton broth alone.

For `CC1(C)S[C@@H]2[C@H](NC(=O)[C@H](N)c3ccccc3)C(=O)N2[C@H]1C(=O)O` [ampicillin], the “effect on bacterial growth” value is “has some effect on bacterial growth but is not totally effective”.

Values taken from patent US11779618B2, “Treatment of topical and systemic bacterial infections” (priority 2014, dated 2023).
